“Also recorded” adds a separate entry of the source. Like-named read-outs stand apart in the source and are kept apart here.
How the values were obtained:
[1] = test system: secretion of the VAP-1-Myc fusion protein; assay: Secretion assay: immunoblot (anti-Myc) of VAP-1-Myc in conditioned axenic media of worms bearing the vap-1::myc transgene; type: in vivo, C. elegans; settings: various concentrations, 16 hours, 24 well plates, dose-dependent fashion (FIG. 8)
Description: Worms (either animals bearing the vap-1::myc transgene or unc-119 (e2498) mutants rescued with plasmid pPD#MM016B as a negative control) were cultured in S basal medium (recipe below) containing HB101 bacteria as a food source for 4–5 days as described below. The worms were separated from the media by centrifugation and washed several times in S basal media. Worms were then resuspended in 50 ml of axenic media (recipe below) and cultured overnight (˜20 h). A vessel containing only axenic media without worms was maintained under identical conditions as a control. The worm density in both the vap-1::myc and unc-119 cultures was approximately 50,000 per ml. It was estimated that 50–70% of the worms carry the transgene.
After overnight incubation in axenic media, the worms and media were separated by centrifugation (see below for details) and the media were concentrated using Centriprep 30 concentrators (see below for details). […]
To determine the effect of 4,7 phenanthroline on secretion of the VAP-1-Myc fusion protein, worms (either transformation control or bearing the vap-1::myc transgene) were cultured in 24 well plates (in a manner similar to the 96 well scaledown protocol described below) in axenic media in the presence of various concencentrations of 4,7 phenanthroline for 16 hours. […] VAP-1-Myc fusion protein was detected with anti-Myc antibody as described above.

ASP-1 release = settings: hookworm larvae, cited from earlier work
A. caninum L3 larvae = settings: in vivo; cited from earlier work

c1cnc2ccc3ncccc3c2c1 [4,7-phenanthroline]
secretion of the VAP-1-Myc fusion protein [1]: inhibited | release of ASP-1 (ASP-1 release): known inhibitor; also recorded: blocked | release of ASP-1 (ASP-1 release; listed as 4,7 phenanthroline): known inhibitor | resumption of larval hookworm development (A. caninum L3 larvae): blocked

Source: patent publication US7064243B2, “Screens and assays for agents useful in controlling parasitic nematodes” (Cambria Biosciences LLC, priority 2001, dated 2006)
